The text below walks through data of paper PMC4640556, “Primary Amine Oxidase of Escherichia coli Is a Metabolic Enzyme that Can Use a Human Leukocyte Molecule as a Substrate” (PLoS ONE, 2015).

Where two headings read alike, the source gives them in different places.

For assay [1], the target named is T1, ECAO (Escherichia coli, UniProt P46883).
T1 construct: made in house; host or cells: E. coli; inferred from the overexpression strain E. coli (pKK233-3-tynA)
The assay is described as follows: ECAO inhibitor test (spectroscopic amine oxidase activity assay, purified ECAO, substrate PEA). The format is biochemical. To be noted: for IC50: purified ECAO; for decrease of ECAO activity by aminoglycoside: aminoglycoside 1 mM (Fig 2C), sisomycin p = 0.06. The protocol: To determine the effect of different inhibitors on ECAO activity, we used purified ECAO protein and a spectroscopic amine oxidase activity assay, which is not as sensitive to additives as the Amplex Red assay. In short, 21 ng of ECAO protein was incubated with differing amounts of inhibitors in Krebs-Ringer phosphate glucose buffer for 20 min at 30°C. After incubation, we added substrate (0.5 mM PEA) and a mixture of 1 mM vanillic acid, 0.5 mM 4-aminopyridine, and 16 U of horseradish peroxidase, and measured the A492nm immediately and hourly thereafter.

Another assay concerns wt E. coli (tynA+). The assay is described as follows: Growth inhibition assay in liquid medium, wt / tynA+ strains. Type of assay: cell-based, Escherichia coli. To be noted: SC concentrations lower than 5–10 mM (S5 Fig). The method, then: (§1) To assess the effect of inhibitors on bacterial growth, discs with different concentrations of SC were placed on LA plates freshly plated with either tynA+ E. coli (three different strains) or tynA- E. coli (five strains). The inhibition zones were measured the next day. For the growth inhibition assay in a liquid medium, the same strains were cultured in tryptic soy broth (TSB) medium for 14–16 h. Then, 10^3 cells were inoculated into TSB medium with different concentrations (0–100 mg/mL) of SC and cultured further at 37°C with shaking at 100 rpm until the following day. Then, 10 μL of bacterial mixture was plated on lactose medium plates, and the plates were incubated at 37°C for 14–16 h before counting the colonies.
(§2) The inhibition of growth by a selective hydrazine-based human amine oxidase inhibitor, BTT-2052 [30], and SC on tynA+ and tynA- strains was tested similarly in M9-lactose-PEA medium using inhibitor concentrations of 0–0.5 mM.

For another assay, the system named is ΔtynA strain. The assay is described as follows: Growth inhibition assay in liquid medium, ΔtynA / tynA- strains. The format is cell-based, Escherichia coli. The note with it: liquid medium (S5 Fig). The protocol: as §1, §2
Assay [2] has as its system tynA+ E. coli and tynA- E. coli. The assay is described as follows: Growth inhibition on LA plates (discs with SC). Type of assay: cell-based, Escherichia coli. The note with it: data not shown. The protocol: as §1
In assay [3] the target is T1, ECAO. Nature of the assay: ECAO activity with human granulocytes as sole substrate (Amplex Red, H2O2 production). Type of assay: biochemical. To be noted: 30 nM ECAO, 200,000 granulocytes per well, 37°C, Cells + ECAO + SC, p = 0.004. An excerpt: To test if ECAO has a substrate on human granulocytes, we used purified recombinant protein ECAO, whose production and purification has been described. To collect human neutrophils, we extracted granulocytes from the fresh peripheral blood of healthy volunteers using Ficoll (GE Healthcare). We collected buffy coats according to standard procedure, lysed red blood cells with Pharm Lyse (BD Biosciences, Franklin Lakes, NJ, USA), washed with PBS, counted the cells, and used the cells immediately. The assay was conducted in 25 mM HEPES and 150 mM NaCl (pH 7.4), and we used 30 nM ECAO and 200,000 viable granulocytes per well. PEA was used as a positive control for the substrate, and the specific activity was determined using parallel wells with SC, as described above. The assay was conducted at 37°C. Three independent assays (different blood donors) were performed with duplicates.

For assay [4], the target named is T1, ECAO. Further details: method as in PMID 7765483. The note with it: cited from earlier work.
Where [5] appears, read: PEA, aminoglycoside concentrations 10 μM–10 mM, read-out: half maximal inhibitory concentration (IC50) of aminoglycosides on ECAO activity on PEA.

T1 sequence (P46883 31-757): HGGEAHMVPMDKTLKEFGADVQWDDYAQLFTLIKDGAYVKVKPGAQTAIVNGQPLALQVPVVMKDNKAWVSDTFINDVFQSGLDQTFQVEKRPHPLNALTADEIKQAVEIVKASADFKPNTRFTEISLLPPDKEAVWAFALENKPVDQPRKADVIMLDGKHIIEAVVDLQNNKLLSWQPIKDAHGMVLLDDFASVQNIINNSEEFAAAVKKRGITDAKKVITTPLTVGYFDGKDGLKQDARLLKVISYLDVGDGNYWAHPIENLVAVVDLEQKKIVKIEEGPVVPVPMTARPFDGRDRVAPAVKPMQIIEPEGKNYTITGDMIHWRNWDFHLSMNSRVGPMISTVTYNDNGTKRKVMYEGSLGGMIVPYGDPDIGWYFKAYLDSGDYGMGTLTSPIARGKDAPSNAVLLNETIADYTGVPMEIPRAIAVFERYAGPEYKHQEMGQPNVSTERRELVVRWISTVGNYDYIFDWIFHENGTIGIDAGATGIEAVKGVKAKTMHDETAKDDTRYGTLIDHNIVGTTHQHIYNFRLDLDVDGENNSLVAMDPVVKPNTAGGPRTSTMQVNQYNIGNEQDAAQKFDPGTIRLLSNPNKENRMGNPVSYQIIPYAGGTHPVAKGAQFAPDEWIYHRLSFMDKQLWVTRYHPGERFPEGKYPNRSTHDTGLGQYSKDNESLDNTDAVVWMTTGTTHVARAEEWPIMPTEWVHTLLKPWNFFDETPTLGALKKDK

Take `NNC(N)=O` [SC, semicarbazide]: the IC50 at ECAO [1] (0.5 mM PEA, seven inhibitor concentrations 0.1–10 μM, 30°C, read-out: half maximal inhibitory concentration (IC50) on ECAO activity on PEA) turned out to be 0.7 µM. Further, the “effect on growth in liquid rich media” value in the assay on wt E. coli (tynA+) is “no significant effect”. Moreover, the “effect on growth of the ΔtynA strain” value in the assay on ΔtynA strain is given as “no effect”. For the same compound, the “effect on bacterial growth on LA plates” value in assay [2] (at 100 mg/mL) is reported as “minimal”; in assay [2] (under the concentration of 100 mg/mL) it was “no effect”. Moreover, the “effect on H2O2 production by ECAO with granulocytes as only source of substrate” value at ECAO [3] is “inhibited”. Further, the “effect on ECAO activity” value at ECAO [4] is reported as “inhibited”. Consider `NCC[C@H](O)C(=O)N[C@@H]1C[C@H](N)[C@@H](O[C@H]2O[C@H](CN)[C@@H](O)[C@H](O)[C@H]2O)[C@H](O)[C@H]1O[C@H]1O[C@H](CO)[C@@H](O)[C@H](N)[C@H]1O` [amikacin], for which the “decrease of ECAO activity by aminoglycoside” value (“decrease of ECAO activity” for short) on ECAO [1] is reported as 23–61%. The IC50 on ECAO [1] (setting [5]) worked out at 1000 µM.

As to `NO` [hydroxylamine], the “effect on ECAO activity” value on ECAO [4] is listed as “inhibited”. On to `CC(C)NNC(=O)c1ccncc1` [iproniazid], for which the “effect on ECAO activity” value on ECAO [4] is “inhibited”.

Take `NC[C@H]1O[C@H](O[C@H]2[C@H](O)[C@@H](O[C@H]3O[C@H](CO)[C@@H](O)[C@H](N)[C@H]3O)[C@H](N)C[C@@H]2N)[C@H](O)[C@@H](O)[C@@H]1O` [kanamycin]: the “decrease of ECAO activity” value on ECAO [1] is listed as 23–61%. For the same compound, the IC50 at ECAO [1] (setting [5]) is 3800 µM. `NNCCc1ccccc1` [phenelzine]: the “effect on ECAO activity” value on ECAO [4] is “inhibited”. For `CN[C@@H]1[C@@H](O)[C@@H](O[C@@H]2[C@@H](O)[C@H](O[C@H]3OC(CN)=CC[C@H]3N)[C@@H](N)C[C@H]2N)OC[C@]1(C)O` [sisomycin], the “decrease of ECAO activity” value at ECAO [1] is on record as 23–61%.

Regarding `NC[C@H]1O[C@H](O[C@H]2[C@H](O)[C@@H](O[C@H]3O[C@H](CO)[C@@H](O)[C@H](N)[C@H]3O)[C@H](N)C[C@@H]2N)[C@H](N)C[C@@H]1O` [tobramycin], at ECAO [1], the “decrease of ECAO activity” value is 23–61%. In addition, on ECAO [1] (setting [5]), the IC50 was 800 µM. For `N[C@@H]1C[C@H]1c1ccccc1` [tranycypromine], at ECAO [4], the “effect on ECAO activity” value is reported as “inhibited”. Turning to Gentamycin, the “decrease of ECAO activity” value at ECAO [1] is given as “no effect”.
